pIC50: −log10 of the molar value.

The target in this assay is T1, renin (Homo sapiens, UniProt P00797).
T1 sequence (P00797 67-406): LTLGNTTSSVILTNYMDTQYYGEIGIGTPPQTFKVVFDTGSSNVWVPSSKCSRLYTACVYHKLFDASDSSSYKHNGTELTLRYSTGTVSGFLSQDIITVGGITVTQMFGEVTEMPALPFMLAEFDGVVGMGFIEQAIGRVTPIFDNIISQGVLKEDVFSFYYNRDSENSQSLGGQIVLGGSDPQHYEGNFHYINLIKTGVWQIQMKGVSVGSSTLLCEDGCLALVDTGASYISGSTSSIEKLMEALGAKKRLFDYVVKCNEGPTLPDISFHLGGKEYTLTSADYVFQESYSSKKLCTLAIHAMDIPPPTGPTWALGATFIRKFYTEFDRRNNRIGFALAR
The experiment in a line: in vitro renin inhibition, radioimmunoassay for angiotensin I. Conditions: incubated for two hours at 37° in the presence of angiotensinogen, read-out: IC50 (molar concentration of test compound causing a 50% inhibition of the renin activity). The assay is classed as biochemical. The protocol: The compounds of the present invention are valuable because of their ability to inhibit renin in an in vitro assay. Activity is determined by a standard radioimmunoassay for angiotensin I. In the assay, the enzyme renin, incubated for two hours at 37° in the presence of a substrate, angiotensinogen, generates the product angiotensin I. Test compounds are added to the incubation mixture. Relative activity is reported as the IC50, which is the molar concentration of test compound causing a 50% inhibition of the renin activity.
The in vitro test employed is more fully described in "Methods in Enzymatic Analysis", Bergmeyer, J., and Grass, N., eds., 3rd edition Weinheim: Verlag Chemie, pp. 251-258 (1984).

With `CC(C)C[C@H](NC(=O)[C@H](Cc1c[nH]cn1)NC(=O)[C@H](Cc1ccccc1)NC(=O)OC(C)(C)C)C(O)C(=O)OC(C)C` (some centres unmarked) [Example 1], the pIC50 is 6.00.

Consider `CC(C)C[C@H](NC(=O)[C@H](Cc1c[nH]cn1)NC(=O)C(Cc1cccc2ccccc12)Cc1cccc2ccccc12)[C@@H](O)C(=O)OC(C)C` [Example 1b, [2R-[2R*,3S*(S*)]]-2-hydroxy-3-[[-3-(1H-imidazol-4-yl)-2-[[3-(1-naphthalenyl)-2-(1-naphthalenylmethyl)-1-oxopropyl]amino]-1-oxopropyl]amino]-5-methylhexanoic acid, 1-methylethyl ester], for which the pIC50 is 6.85.

The values above are taken from US5135914A, “Substituted derivatives of 3-amino-2-hydroxypropionic acid as inhibitors of renin” (Warner-Lambert Company, priority 1988, dated 1992).
